Where a name gives a salt, the structure may show the parent alone.

This experiment deals with T1, human factor XIa (Homo sapiens, UniProt P03951).
T1 construct: purchased Kordia
T1 sequence (P03951 388-625 limits assumed): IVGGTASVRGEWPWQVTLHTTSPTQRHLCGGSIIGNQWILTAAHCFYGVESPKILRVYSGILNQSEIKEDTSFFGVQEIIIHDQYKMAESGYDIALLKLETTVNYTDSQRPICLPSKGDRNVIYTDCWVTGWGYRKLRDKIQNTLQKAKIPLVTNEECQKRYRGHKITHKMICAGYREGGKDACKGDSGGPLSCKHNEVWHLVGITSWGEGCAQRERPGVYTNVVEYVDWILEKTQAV
T1 sequence (P03951 19-387 partner limits assumed): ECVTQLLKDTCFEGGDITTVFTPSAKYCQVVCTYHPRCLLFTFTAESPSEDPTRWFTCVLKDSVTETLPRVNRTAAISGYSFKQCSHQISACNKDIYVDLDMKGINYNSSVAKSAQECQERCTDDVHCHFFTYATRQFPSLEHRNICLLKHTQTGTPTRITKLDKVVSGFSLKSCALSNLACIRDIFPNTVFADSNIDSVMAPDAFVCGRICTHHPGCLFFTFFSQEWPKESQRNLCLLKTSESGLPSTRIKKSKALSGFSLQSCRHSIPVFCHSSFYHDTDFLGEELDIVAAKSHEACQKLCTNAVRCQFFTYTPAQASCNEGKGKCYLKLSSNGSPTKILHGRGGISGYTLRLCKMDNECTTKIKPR
The experiment is described as follows: Measurement of FXIa inhibition (fluorogenic peptide substrate Boc-Glu(OBzl)-Ala-Arg-AMC). The format is biochemical. The following applies: factor XIa from Kordia 0.45 nM, 15 min pre-incubation, 30 min at 22° C., fluorescence. The protocol: The factor XIa inhibition of the substances according to the invention is determined using a biochemical test system which utilizes the reaction of a peptidic factor XIa substrate to determine the enzymatic activity of human factor XIa. Here, factor XIa cleaves from the peptic factor XIa substrate the C-terminal aminomethylcoumarin (AMC), the fluorescence of which is measured. The determinations are carried out in microtitre plates.
Test substances are dissolved in dimethyl sulphoxide and serially diluted in dimethyl sulphoxide (3000 μM to 0.0078 μM; resulting final concentrations in the test: 50 μM to 0.00013 μM). In each case 1 μl of the diluted substance solutions is placed into the wells of white microtitre plates from Greiner (384 wells). Subsequently, the following are added successively: 20 μl of assay buffer (50 mmol/l Tris buffer pH 7.4; 100 mmol/l sodium chloride; 5 mmol/l calcium chloride; 0.1% bovine serum albumin) and 20 μl of factor XIa from Kordia (0.45 nM in assay buffer). After 15 min of incubation, the enzyme reaction is started by addition of 20 μl of the factor XIa substrate Boc-Glu(OBzl)-Ala-Arg-AMC dissolved in assay buffer (10 μM in assay buffer) from Bachem, the mixture is incubated at room temperature (22° C.) for 30 min and fluorescence is then measured (excitation: 360 nm, emission: 460 nm). The measured emissions of the test batches with test substance are compared to those of control batches without test substance (only dimethyl sulphoxide instead of test substance in dimethyl sulphoxide), and IC50 values are calculated from the concentration/activity relationships.
With `Cc1ccc(S(=O)(=O)N2CCOCC2)cc1-c1cccc(C[C@H](NC(=O)[C@H]2CC[C@H](CN)CC2)C(=O)Nc2ccc(-c3nnn[nH]3)cc2)c1` [Example 3, trans-4-(Aminomethyl)-N-[(2S)-3-[2′-methyl-5′-(morpholin-4-ylsulphonyl)biphenyl-3-yl]-1-oxo-1-{[4-(1H-tetrazol-5-yl)phenyl]amino}propan-2-yl]cyclohexanecarboxamide hydrochloride], the IC50 came out at 0.9 nM.

On to `Cc1cc(C(=O)NC2CCNCC2)ccc1-c1cccc(C[C@H](NC(=O)[C@H]2CC[C@H](CN)CC2)C(=O)Nc2ccc(-c3nnn[nH]3)cc2)c1` [Example 15, 3′-[(2S)-2-({[trans-4-(Aminomethyl)cyclohexyl]carbonyl}amino)-3-oxo-3-{[4-(1H-tetrazol-5-yl)phenyl]amino}propyl]-2-methyl-N-(piperidin-4-yl)biphenyl-4-carboxamide hydrochloride], for which the IC50 was 7.7 nM.

Turning to `Cc1ccc(S(=O)(=O)N(C)C)cc1-c1cccc(C[C@H](NC(=O)[C@H]2CC[C@H](CN)CC2)C(=O)Nc2ccc(-c3noc(=O)[nH]3)cc2)c1` [Example 23, trans-4-(Aminomethyl)-N-[(2S)-3-[5′-(dimethylsulphamoyl)-2′-methylbiphenyl-3-yl]-1-oxo-1-{[4-(5-oxo-4,5-dihydro-1,2,4-oxadiazol-3-yl)phenyl]amino}propan-2-yl]cyclohexanecarboxamide hydrochloride], the IC50 is 3.6 nM. Compared with the last compound, the IC50 is about 2.1-fold lower.

For the compound `Cc1cc(C(=O)NCCOCCOCCO)ccc1-c1cccc(C[C@H](NC(=O)[C@H]2CC[C@H](CN)CC2)C(=O)Nc2ccc(-c3nnn[nH]3)cc2)c1` [Example 25, 3′-[(2S)-2-({[trans-4-(Aminomethyl)cyclohexyl]carbonyl}amino)-3-oxo-3-{[4-(1H-tetrazol-5-yl)phenyl]amino}propyl]-N-{2-[2-(2-hydroxyethoxy)ethoxy]ethyl}-2-methylbiphenyl-4-carboxamide hydrochloride], the IC50 was determined as 4.4 nM. The IC50 values of the last two compounds are within 1.5-fold of each other.

The compound `NC[C@H]1CC[C@H](C(=O)N[C@@H](Cc2cccc(-c3ccc(C(=O)N4CCOCC4)cc3)c2)C(=O)Nc2ccc(-c3nnc(Cl)[nH]3)cc2)CC1` [Example 26, trans-4-(Aminomethyl)-N-{(2S)-1-{[4-(3-chloro-4H-1,2,4-triazol-5-yl)phenyl]amino}-3-[4′-(morpholin-4-ylcarbonyl)biphenyl-3-yl]-1-oxopropan-2-yl}cyclohexanecarboxamide hydrochloride] had a 50% inhibitory concentration (IC50) of 4.5 nM.

On to `Cc1ccc(C[C@H](NC(=O)[C@H]2CC[C@H](CN)CC2)C(=O)Nc2ccc(-c3nnn[nH]3)cc2)cc1-c1cccc(C(=O)NCCOCCOCCO)c1` [Example 28, 5′-[(2S)-2-({[trans-4-(Aminomethyl)cyclohexyl]carbonyl}amino)-3-oxo-3-{[4-(1H-tetrazol-5-yl)phenyl]amino}propyl]-N-{2-[2-(2-hydroxyethoxy)ethoxy]ethyl}-2′-methylbiphenyl-3-carboxamide hydrochloride], for which it took 5.2 nM to reach half-maximal inhibition (IC50).

`Cc1ccc(C[C@H](NC(=O)C2CCC(CN)CC2)C(=O)Nc2ccc(-c3nnn[nH]3)cc2)cc1-c1cccc(C(=O)NC2C3CNCC32)c1` (stereo partly drawn) [Example 35, 5′-[(2S)-2-({[trans-4-(Aminomethyl)cyclohexyl]carbonyl}amino)-3-oxo-3-{[4-(1H-tetrazol-5-yl)phenyl]amino}propyl]-N-(3-azabicyclo[3.1.0]hex-6-yl)-2′-methylbiphenyl-3-carboxamide hydrochloride] returned an IC50 of 10 nM.

For the compound `NCCNC(=O)c1ccc(-c2cccc(C[C@H](NC(=O)[C@H]3CC[C@H](CN)CC3)C(=O)Nc3ccc4cn[nH]c4c3)c2)cc1` [Example 50, N-(2-Aminoethyl)-3′-[(2S)-2-({[trans-4-(aminomethyl)cyclohexyl]carbonyl}amino)-3-(1H-indazol-6-ylamino)-3-oxopropyl]biphenyl-4-carboxamide hydrochloride], the IC50 is 55 nM. Against the preceding compound, the IC50 is about 5.5-fold higher.

Compound `CCN(CC)CCNC(=O)c1ccc(-c2cccc(C[C@H](NC(=O)[C@H]3CC[C@H](CN)CC3)C(=O)Nc3ccc4cn[nH]c4c3)c2)cc1` [Example 53, 3′-[(2S)-2-({[trans-4-(Aminomethyl)cyclohexyl]carbonyl}amino)-3-(1H-indazol-6-ylamino)-3-oxopropyl]-N-[2-(diethylamino)ethyl]biphenyl-4-carboxamide hydrochloride] gave an IC50 of 17 nM.

On to `Cc1cc(C(=O)N[C@@H]2CCCNC2=O)ccc1-c1cccc(C[C@H](NC(=O)[C@H]2CC[C@H](CN)CC2)C(=O)Nc2ccc3nc(C(F)(F)C(F)(F)F)[nH]c3c2)c1` [Example 63, 3′-[(2S)-2-({[trans-4-(Aminomethyl)cyclohexyl]carbonyl}amino)-3-oxo-3-{[2-(pentafluoroethyl)-1H-benzimidazol-6-yl]amino}propyl]-2-methyl-N-[(3R)-2-oxopiperidin-3-yl]biphenyl-4-carboxamide hydrochloride], for which the IC50 worked out at 52 nM. Compared with the last compound, the IC50 is about 3.1-fold higher.

`CN1CCN(c2cc(-c3cccc(C[C@H](NC(=O)[C@H]4CC[C@H](CN)CC4)C(=O)Nc4ccc(-c5nnn[nH]5)cc4)c3)ccn2)CC1` [Example 65, N-alpha-{[trans-4-(Aminomethyl)cyclohexyl]carbonyl}-3-[2-(4-methylpiperazin-1-yl)pyridin-4-yl]-N-[4-(1H-tetrazol-5-yl)phenyl]-L-phenylalaninamide hydrochloride] registered an IC50 of 12 nM.

Turning to `CN1CCN(c2ncc(-c3cccc(C[C@H](NC(=O)[C@H]4CC[C@H](CN)CC4)C(=O)Nc4ccc(-c5nnn[nH]5)cc4)c3)cn2)CC1` [Example 69, N-alpha-{[trans-4-(Aminomethyl)cyclohexyl]carbonyl}-3-[2-(4-methylpiperazin-1-yl)pyrimidin-5-yl]-N-[4-(1H-tetrazol-5-yl)phenyl]-L-phenylalaninamide hydrochloride], the concentration for half-maximal inhibition (IC50) amounted to 4.9 nM.

In turn, `CN(C)c1ccc(-c2cccc(C[C@H](NC(=O)[C@H]3CC[C@H](CN)CC3)C(=O)Nc3ccc(-c4nnn[nH]4)cc3)c2)cn1` [Example 71, N-alpha-{[trans-4-(Aminomethyl)cyclohexyl]carbonyl}-3-[6-(dimethylamino)pyridin-3-yl]-N-[4-(1H-tetrazol-5-yl)phenyl]-L-phenylalaninamide hydrochloride] yielded a half-inhibitory concentration (IC50) of 3.1 nM.

In turn, `NC[C@H]1CC[C@H](C(=O)N[C@@H](Cc2cccc(-c3cncc(N)c3)c2)C(=O)Nc2ccc(-c3nnn[nH]3)cc2)CC1` [Example 72, N-alpha-{[trans-4-(Aminomethyl)cyclohexyl]carbonyl}-3-(5-aminopyridin-3-yl)-N-[4-(1H-tetrazol-5-yl)phenyl]-L-phenylalaninamide hydrochloride] returned an IC50 of 5.3 nM.

With `CN(C)c1ncc(-c2cccc(C[C@H](NC(=O)[C@H]3CC[C@H](CN)CC3)C(=O)Nc3ccc4[nH]c(=O)[nH]c4c3)c2)cn1` [Example 73, N-alpha-{[trans-4-(Aminomethyl)cyclohexyl]carbonyl}-3-[2-(dimethylamino)pyrimidin-5-yl]-N-(2-oxo-2,3-dihydro-1H-benzimidazol-5-yl)-L-phenylalaninamide hydrochloride], the IC50 worked out at 25 nM.

The compound `NC[C@H]1CC[C@H](C(=O)N[C@@H](Cc2cccc(-c3cnc(N4CCOCC4)nc3)c2)C(=O)Nc2ccc(-c3nnn[nH]3)cc2)CC1` [Example 74, N-alpha-{[trans-4-(Aminomethyl)cyclohexyl]carbonyl}-3-[2-(morpholin-4-yl)pyrimidin-5-yl]-N-[4-(1H-tetrazol-5-yl)phenyl]-L-phenylalaninamide hydrochloride] had an IC50 of 2.1 nM.

In turn, `Cc1cnccc1-c1cccc(C[C@H](NC(=O)[C@H]2CC[C@H](CN)CC2)C(=O)Nc2ccc3[nH]c(=O)[nH]c3c2)c1` [Example 75, N-alpha-{[trans-4-(Aminomethyl)cyclohexyl]carbonyl}-3-(3-methylpyridin-4-yl)-N-(2-oxo-2,3-dihydro-1H-benzimidazol-5-yl)-L-phenylalaninamide hydrochloride] came in with an IC50 of 35 nM.

`CN1CCN(c2cc(-c3cccc(C[C@H](NC(=O)[C@H]4CC[C@H](CN)CC4)C(=O)Nc4ccc5[nH]c(=O)[nH]c5c4)c3)ccn2)CC1` [Example 76, N-alpha-{[trans-4-(Aminomethyl)cyclohexyl]carbonyl}-3-[2-(4-methylpiperazin-1-yl)pyridin-4-yl]-N-(2-oxo-2,3-dihydro-1H-benzimidazol-5-yl)-L-phenylalaninamide hydrochloride] displayed an IC50 of 59 nM.

`CN1CCN(c2ccc(-c3cccc(C[C@H](NC(=O)[C@H]4CC[C@H](CN)CC4)C(=O)Nc4ccc(-c5nnn[nH]5)cc4)c3)cn2)CC1` [Example 77, N-alpha-{[trans-4-(Aminomethyl)cyclohexyl]carbonyl}-3-[6-(4-methylpiperazin-1-yl)pyridin-3-yl]-N-[4-(1H-tetrazol-5-yl)phenyl]-L-phenylalaninamide hydrochloride] showed a 50% inhibitory concentration (IC50) of 7.3 nM.

For the compound `NC[C@H]1CC[C@H](C(=O)N[C@@H](Cc2cccc(-c3ccccc3C(F)(F)F)c2)C(=O)Nc2ccc(-c3nnn[nH]3)cc2)CC1` [Example 84, trans-4-(Aminomethyl)-N-{(25)-1-oxo-1-{[4-(1H-tetrazol-5-yl)phenyl]amino}-3-[2′-(trifluoromethyl)biphenyl-3-yl]propan-2-yl}cyclohexanecarboxamide hydrochloride], the IC50 was 3.1 nM.

Values taken from patent publication US20160244437A1, “SUBSTITUTED PHENYLALANINE DERIVATIVES” (BAYER PHARMA AKTIENGESELLSCHAFT, priority 2013, published 2016).
